Data from patent US20180325947A1, “USE OF MAPK INHIBITORS TO REDUCE LOSS OF HEMATOPOIETIC STEM CELLS DURING EX VIVO CULTURE AND/OR GENETIC MANIPULATION” (Children's Hospital Medical Center, priority 2015, published 2018).
Entries after “also recorded” stand apart in the source; their conditions may differ.

How the values were obtained:
[1] = system: human HSC long term repopulating potential; test: secondary transplant (2T) in NSG mice, long term repopulating potential (LTRP); assay type: in vivo; details: for secondary engraftment potential / long term repopulating potential (LTRP): 2T NSG mice, 6 weeks, inhibitor present during ex vivo culture, all time points; for number of 2T mice with human cell engraftment (>0.01% hCD45+ cells in BM): 6 weeks post-secondary transplant
Method: FIG. 2. A preclinical model for studying adult human HSC ex vivo manipulation and gene transfer and its effect on LTRP. (Panel A) Freshly isolated or thawed mobilized peripheral blood (MPB) derived CD34+ cells were utilized for the study. Two different protocols were utilized for the study where lentivirus (LV) or γ-Retrovirus (RV) mediated gene transfer was performed at indicated time points. 0 h, 18-24 h, 36-42 h, and 72-96 h indicates the total amount of time where cells were exposed in the ex vivo culture after CD34 isolation before injection into NSG mice. (Panel B) After indicated time in culture and transduction, 1 million CD34+ starting equivalent cells were transplanted per NSG mouse after TBI intravenously (primary transplant=1T). Primary human engraftment and multi-lineage reconstitution was analyzed in mice at indicated time periods after bone marrow harvest at 6 and 12 weeks (wks) from left and right femurs, and after sacrifice at 24 wks, from all bones. A portion of cells were analyzed for FACS and the rest were depleted of mouse CD45+ cells and transplanted one to one, into secondary mice (secondary transplant=2T).
Panel B: Number of 2T mice engrafted (>0.01% hCD45^+ cells in BM) are shown above the middle bar and those non-engrafted below.
Human MPB derived CD34^+ cells either fresh or thawed were cultured and transduced with lentivirus (LV) or retrovirus (RV) expressing GFP for the indicated time points. Cells were harvested and phospho-p38MAPK was detected by flow cytometry. Panel A: Representative histogram plot of p-p38 (number represents mean fluorescence intensity (MFI). Panel B: Fold change of p-p38 MAPK MFI (±SEM) in human CD34^+ 38^− 90^+ 45RA^− 49f^+ cells with or without p38 inhibitor (p38i). Panel C: Human CD45^+ engraftment in NSG mice with (striped bars) or without p38 inhibitor (solid bars) after 24 weeks of primary transplant. Panel D: Human engraftment in NSG mice with or without p38i after 6 weeks of secondary transplant. Engrafted mice (>0.01% CD45^+ cells in the whole bone marrow) over total mice transplanted is shown as percentage. Human CD33^+ myeloid (Panels E and F), CD19^+ B-Lymphoid (Panels G and H) and CD34^+ hematopoietic stem/progenitor cells (HSPCs) (Panels I and J) re-constitution with or without p38i (Panels E, G, and I): GFP^− untransduced; (Panels F, H & J): GFP^+ transduced in primary transplanted mice 24 weeks post transplantation are shown. Data expressed as mean±SEM from 5 independent experiments (n=12-21 mice per group). Statistics: Student's t test, *p<0.05, **p<0.01, ***p<0.001.
Engrafted mice (>0.01% CD45^+ cells in the whole bone marrow) are shown above the middle bar, engrafted/Total mice number is shown on the side. […] Data expressed as mean±SEM from 5 independent experiments (n=7-29 mice per group). […]

[2] = system: human CD34+ 38- 90+ HSC enriched population; test: DNA damage response (gamma-H2AX, 53BP1) by immunofluorescence and flow cytometry; assay type: cell-based
Method: Human MPB derived CD34^+ cells were cultured and transduced with lentivirus (LV) or retrovirus (RV) for the indicated time points. Representative Immunofluorescence images of sorted human CD34^+ 38^− 90^+ population treated with or without p38i for 72 hours stained with anti-γH2AX and 53BP1 (Panel A) and quantification of γ-H2AX (Panel B) and 53BP1 (Panel C) MFI/cell. Panel D: Representative histogram plot from flow cytometric analysis of CD34^+ 38^− 90^+ HSC enriched cells stained for γ-H2AX with or without p38 inhibitor (p38i) and quantification of fold change in mean fluorescence intensity (MFI) of γ-H2AX in HSCs (Panel E) and percent GH2AX^+ cells (Panel F) at indicated time period. Percentage shown in histograms are cells positive for γH2AX and the numbers below is mean fluorescent intensity (MFI) (n=5 independent experiments). FACS plot representing HSCs in G0 (Quiescent), G1, and S-G2-M phase of cell cycle with or without p38i (Panel G) and quantification (Panel H) of HSC enriched population at different cell cycle phase at indicated time of ex vivo culture. Percentage of (±SEM) Ki67^− (G0) and Ki67^+ (G1-S-G2-M) HSCs is depicted on the y-axis. (n=4 independent experiments for 24 h LV and n=5 independent experiments for 42 h LV and 72 h RV)). Statistics: paired Student's t test, *p<0.05, **p<0.01, ***p<0.001.
Human MPB derived CD34^+ cells were cultured and transduced as described in FIG. 17. Panel A: Quantification of γ-H2AX^+ CD34^+ 38^− 90^+ cells at 24, 42, & 72 hours. n=5-8 independent experiments/condition). Panel B: Quantification of immunofluorescence analysis for γ-H2AX (left) and 53BP1 (right) MFI per sorted human CD34^+ 38^− 90^+ cell with or without p38i for 42 hours. Panel C: Quantitative plot representing CD34^+ 38^− 90^+ cells in G0-G1, and S-G2-M phase of cell cycle with or without p38i at 42 hours of ex vivo culture and lentivirus (LV) transduction. (n=6 independent experiments/condition). Statistics: paired Student's t test, *p<0.05, **p<0.01, ***p<0.001. Statistics: Student's t test, *p<0.05, **p<0.01, ***p<[…].
Human BM derived CD34 cells were cultured and transduced with lentivirus (LV) for 48 hours. Representative FACS plot representing bone marrow derived HSC enriched CD34^+ 38^− 90^+ population in G0 (Quiescent), G1, and S-G2-M phase of cell cycle with or without p38i (left) and the corresponding representative histogram plot of γH2AX at indicated time and treatment. Percentage shown in histogram refers to cells positive for γH2AX and the numbers below is mean fluorescent intensity (MFI).
p38 inhibition maintains the quiescent phase of HSCs and reduces DNA damage response (DDR) early in culture. Cell cycle entry and gene manipulation induces a DDR in human HSCs that is reduced by inhibiting p38MAPK early in culture. DNA double-strand breaks in Human HSCs were assessed by γ-H2AX staining, a sensitive and specific indicator of DNA double-strand breaks.

Compound: Cc1ccc(-n2nc(C(C)(C)C)cc2NC(=O)Nc2ccc(OCCN3CCOCC3)c3ccccc23)cc1 [BIRB-796, 1-[5-tert-butyl-2-(4-methylphenyl)pyrazol-3-yl]-3-[4-(2-morpholin-4-ylethoxy)naphthalen-1-yl]urea]
- secondary engraftment potential / long term repopulating potential (LTRP) [1]: retains
- secondary engraftment potential / long term repopulating potential (LTRP) ([1]; listed as p38i): retain; also recorded: restores; also recorded: rescues
- number of 2T mice with human cell engraftment (>0.01% hCD45+ cells in BM) [1]: significantly increase
- number of 2T mice with human cell engraftment (>0.01% hCD45+ cells in BM) ([1]; listed as Birb796): increases
- percentage of γH2AX+ cells ([2]; 36-42 h and 72-96 h groups): significantly reduced
- γH2AX staining ([2]; 24 hours of culture, flow cytometry): returned to levels seen in unmanipulated HSC
- DNA Damage Response (DDR) ([2]; MPB derived CD34+ 38- 90+ cells, ex vivo culture and gene transfer): reduces
- DNA Damage Response (DDR) ([2]; bone marrow (BM) derived CD34+ 38- 90+ cells, LV 48 hours): reduces
- γH2AX foci (DNA damage response) ([2]; cultured and transduced for 36-42 hours or 72 hours): rescued
